From patent US10098350B2, “Fungicidal amides” (E. I. DU PONT DE NEMOURS AND COMPANY, priority 2013, dated 2018)

Key:
Format in all cases: in vivo
[1] = system: Puccinia recondite f. sp. tritici; assay: Test D: wheat seedlings sprayed with test suspension, inoculated with Puccinia recondite f. sp. tritici (wheat leaf rust), visual disease rating
From the text: (§1) General protocol for preparing test suspensions for Tests A-E: the test compounds were first dissolved in acetone in an amount equal to 3% of the final volume and then suspended at the desired concentration (in ppm) in acetone and purified water (50/50 mix by volume) containing 250 ppm of the surfactant Trem® 014 (polyhydric alcohol esters). The resulting test suspensions were then used in Tests A-E. Samples were applied to plants at either a 10 ppm (**), 40 ppm, 50 ppm (*) or 200 ppm (#) test solution to the point of run-off on the test plants with the equivalent of a rate of 40 g ai/ha, 160 g ai/ha, 200 g ai/ha, or 800 g ai/ha, respectively.
(§2) The test suspension was sprayed to the point of run-off on wheat seedlings. The following day the seedlings were inoculated with a spore suspension of Puccinia recondite f. sp. tritici; (the causal agent of wheat leaf rust) and incubated in a saturated atmosphere at 20° C. for 24 h, and then moved to a growth chamber at 20° C. for 6 days, after which time visual disease ratings were made.
(§3) Results for Tests A-E are given in Table A. In the Table, a rating of 100 indicates 100% disease control and a rating of 0 indicates no disease control (relative to the controls). A dash (-) indicates no test results.

[2] = system: Stagonospora nodorum (also known as Septoria nodorum); assay: Test B: wheat seedlings sprayed with test suspension, inoculated with Stagonospora nodorum (wheat glume blotch), visual disease rating
From the text: as §1
as §2, with “Stagonospora nodorum (also known as Septoria nodorum; the” for “Puccinia recondite f. sp. tritici; (the”, “glume blotch)” for “leaf rust)”, “48” for “24”
as §3

Septoria tritici = assay: Test C: wheat seedlings sprayed with test suspension, inoculated with Septoria tritici (wheat leaf blotch), visual disease rating
From the text: as §1
The test suspension was sprayed to the point of run-off on wheat seedlings. The following day the seedlings were inoculated with a spore suspension of Septoria tritici (the causal agent of wheat leaf blotch) and incubated in a saturated atmosphere at 24° C. for 48 h, and then moved to a growth chamber at 20° C. for 21 days, after which time visual disease ratings were made.
as §3

[3] = system: Erysiphe graminis f. sp. tritici; assay: Test E: wheat seedlings sprayed with test suspension, inoculated with Erysiphe graminis f. sp. tritici (wheat powdery mildew), visual disease rating
From the text: as §1
The test suspension was sprayed to the point of run-off on wheat seedlings. The following day the seedlings were inoculated with a spore dust of Erysiphe graminis f. sp. tritici, (the causal agent of wheat powdery mildew) and incubated in a growth chamber at 20° C. for 7 or 8 days, after which time visual disease ratings were made.
as §3

[4] = Cmpd. No. unmarked, 100 = 100% disease control, 0 = no control relative to controls
[5] = Cmpd. No. marked '*' (other test rate; meaning of mark not shown)
[6] = Cmpd. No. marked '**' (other test rate; meaning of mark not shown)

Compound	Test D rating (% disease control) [1, 4] [%]	Test B rating (% disease control) [2, 4] [%]	Test C rating (% disease control) (Septoria tritici; [4]) [%]	Test E rating (% disease control) [3, 4] [%]	also measured
Cn1cc(C(=O)N(Cc2c(Cl)cc(-n3ccc(Br)n3)cc2Cl)C2CC2)c(C(F)F)n1 [compound 40]	99	99	99	89	–
CC(c1cc(-n2ccc(C(F)(F)F)n2)cc(C(F)(F)F)c1)N(C(=O)c1cn(C)nc1C(F)F)C1CC1 (stereo not shown) [compound 42]	0	0	39	0	–
Cn1nc(C(F)F)c(C(=O)N(Cc2cnc(-n3ccc(C(F)(F)F)n3)c(Cl)c2)C2CC2)c1F [compound 43]	0	0	6	0	–
COc1ccc(C(C)N(C(=O)c2cn(C)nc2C(F)F)C2CC2)cc1-n1ccc(C(F)(F)F)n1 (stereo not shown) [compound 44]	0	78	87	0	–
Cc1ccc(-n2ccc(C(F)(F)F)n2)cc1C(C)N(C(=O)c1cn(C)nc1C(F)F)C1CC1 (stereo not shown) [compound 45]	9	100	96	90	–
Cn1nc(C(F)F)c(C(=O)N(Cc2ccc(-n3cccn3)cc2Cl)C2CC2)c1F [compound 46]	94	100	99	98	–
Cn1nc(C(F)F)c(C(=O)N(Cc2ccc(-n3ccc(Br)n3)cc2Cl)C2CC2)c1F [compound 47]	98	100	99	99	–
Cn1cc(C(=O)N(Cc2ccc(-n3cccn3)cc2Cl)C2CC2)c(C(F)F)n1 [compound 48]	0	100	98	73	–
Cn1cc(C(=O)N(Cc2ccc(-n3ccc(Br)n3)cc2Cl)C2CC2)c(C(F)F)n1 [compound 49]	9	98	99	69	–
Cn1cc(C(=O)N(Cc2ccc(-n3cncn3)cc2Cl)C2CC2)c(C(F)F)n1 [compound 50]	0	0	28	0	–
CC(c1ccc(C(F)(F)F)c(-n2ccc(C(F)(F)F)n2)c1)N(C(=O)c1c(C(F)F)nn(C)c1F)C1CC1 (stereo not shown) [compound 51]	0	100	88	84	–
Cc1ccc(-n2ccc(C(F)(F)F)n2)cc1C(C)N(C(=O)c1c(C(F)F)nn(C)c1F)C1CC1 (stereo not shown) [compound 52]	93	100	99	99	–
CC(c1cc(-n2ccc(C(F)(F)F)n2)ccc1Br)N(C(=O)c1c(C(F)F)nn(C)c1F)C1CC1 (stereo not shown) [compound 53]	74	100	97	96	–
COc1ccc(C(C)N(C(=O)c2c(C(F)F)nn(C)c2F)C2CC2)cc1-n1ccc(C(F)(F)F)n1 (stereo not shown) [compound 55]	61	100	97	87	–
CC(c1cc(-n2ccc(C(F)(F)F)n2)cc(C(F)(F)F)c1)N(C(=O)c1c(C(F)F)nn(C)c1F)C1CC1 (stereo not shown) [compound 56]	86	100	97	92	–
Cn1nc(C(F)F)c(C(=O)N(Cc2ccc(-n3ccc(C(F)(F)F)n3)cc2OCC#N)C2CC2)c1F [compound 61]	9	0	90	21	–

Compound	Test D rating (% disease control) [1, 4] [%]	Test B rating (% disease control) [2, 4] [%]	Test C rating (% disease control) (Septoria tritici; [4]) [%]	Test E rating (% disease control) [3, 4] [%]	also measured
C#CCOc1cc(-n2ccc(C(F)(F)F)n2)ccc1CN(C(=O)c1c(C(F)F)nn(C)c1F)C1CC1 [compound 62]	99	99	99	94	–
Cn1nc(C(F)F)c(C(=O)N(Cc2ccc(-n3nccn3)cc2Cl)C2CC2)c1F [compound 64]	100	100	98	97	–
Cc1ncn(-c2ccc(CN(C(=O)c3c(C(F)F)nn(C)c3F)C3CC3)c(Cl)c2)n1 [compound 65]	0	87	98	0	–
Cn1nc(C(F)F)c(C(=O)N(Cc2ccc(-n3ccnn3)cc2Cl)C2CC2)c1F [compound 66]	28	97	94	0	–
Cn1nc(C(F)F)c(C(=O)N(Cc2ccc(-n3cnc(C(F)(F)F)n3)cc2Cl)C2CC2)c1F [compound 67]	0	0	99	0	–
Cn1nc(C(F)F)c(C(=O)N(Cc2ccc(-n3ccc(C(F)(F)F)n3)cc2F)C2CC2)c1F [compound 68]	91	100	97	99	–
Cn1cc(C(=O)N(Cc2c(F)cc(-n3ccc(C(F)(F)F)n3)cc2F)C2CC2)c(C(F)F)n1 [compound 71]	0	92	99	91	–
CC(c1ccc(-n2ccc(C(F)(F)F)n2)cc1Cl)N(C(=O)c1c(C(F)F)nn(C)c1F)C1CC1 (stereo not shown) [compound 72]	99	100	100	99	–
Cc1ccc(-n2ccc(C(F)(F)F)n2)cc1CN(C(=O)c1c(C(F)F)nn(C)c1F)C1CC1 [compound 84]	–	–	–	–	Test D rating (% disease control) [1, 5]: 89%; Test B rating (% disease control) [2, 5]: 100%; Test C rating (% disease control) (Septoria tritici; [5]): 98%; Test E rating (% disease control) [3, 5]: 94%
Cn1nc(C(F)F)c(C(=O)N(Cc2cc(-n3ccc(C(F)(F)F)n3)ccc2Cl)C2CC2)c1F [compound 86]	–	–	–	–	Test D rating (% disease control) [1, 5]: 68%; Test B rating (% disease control) [2, 5]: 100%; Test C rating (% disease control) (Septoria tritici; [5]): 99%; Test E rating (% disease control) [3, 5]: 95%
Cn1nc(C(F)F)c(C(=O)N(Cc2ccc(-n3ccc(C(F)(F)F)n3)c(Br)c2)C2CC2)c1F [compound 98]	–	–	–	–	Test D rating (% disease control) [1, 6]: 86%; Test B rating (% disease control) [2, 6]: 64%; Test C rating (% disease control) (Septoria tritici; [6]): 94%; Test E rating (% disease control) [3, 6]: 84%
Cn1nc(C(F)F)c(C(=O)N(Cc2ccc(-n3ccc(C(F)(F)F)n3)c(Cl)c2)C2CC2)c1F [compound 99]	–	–	–	–	Test D rating (% disease control) [1, 6]: 97%; Test B rating (% disease control) [2, 6]: 59%; Test C rating (% disease control) (Septoria tritici; [6]): 96%; Test E rating (% disease control) [3, 6]: 89%
Cn1cc(C(=O)N(Cc2ccnc(-n3ccc(C(F)(F)F)n3)c2Cl)C2CC2)c(C(F)F)n1 [compound 100]	–	–	–	–	Test D rating (% disease control) [1, 6]: 0%; Test B rating (% disease control) [2, 6]: 0%; Test C rating (% disease control) (Septoria tritici; [6]): 6%; Test E rating (% disease control) [3, 6]: 0%
Cc1cc(-n2ccc(C(F)(F)F)n2)ccc1CN(C(=O)c1c(C(F)F)nn(C)c1F)C1CC1 [compound 105]	99	100	98	98	–
Cn1nc(C(F)F)c(C(=O)N(Cc2ccc(-n3ccc(C(F)(F)F)n3)cc2Br)C2CC2)c1F [compound 106]	99	100	96	97	–
